Reference: article PMC6328587 (Nature Communications, 2019)
Where “and” joins values, the source holds several entries; their conditions need not be identical. Equal entries are not always repeated.

Assays:
p38δ = target: T1, p38δ (Homo sapiens, UniProt O15264); assay: PROTAC-induced p38δ degradation, western blot in MDA-MB-231 cells; type: cell-based; conditions: 0.025-5.0 µM survey, ± one s.d., Supplementary Table 1; for DC50: biological duplicates
T1 construct: endogenous in cells; host or cells: MDA-MB-231
T1 sequence (O15264 1-365): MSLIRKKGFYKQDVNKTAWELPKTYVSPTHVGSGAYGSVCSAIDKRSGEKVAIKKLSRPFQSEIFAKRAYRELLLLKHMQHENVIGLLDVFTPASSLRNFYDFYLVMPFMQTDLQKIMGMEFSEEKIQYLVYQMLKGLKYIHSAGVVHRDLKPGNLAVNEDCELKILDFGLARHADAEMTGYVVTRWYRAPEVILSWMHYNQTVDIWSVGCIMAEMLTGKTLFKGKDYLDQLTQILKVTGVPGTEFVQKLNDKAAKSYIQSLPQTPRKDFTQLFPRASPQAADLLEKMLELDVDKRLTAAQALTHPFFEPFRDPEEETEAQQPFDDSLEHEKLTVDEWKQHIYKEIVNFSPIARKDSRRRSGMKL
Procedure: (§1) MDA-MB-231 and HeLa cells were obtained from the American Type Culture Collection (ATCC), cultured in RPMI-1640 medium (1 × ) and Dulbecco’s modified Eagle’s medium (DMEM; 1 × ), respectively, containing 10% fetal bovine serum and 1% penicillin–streptomycin and grown in a humidified incubator at 37 °C and 5% CO2.
(§2) […] once with ice-cold PBS (1 × ), followed by lysis in buffer containing 25 mM Tris [pH 7.5], 0.25% sodium deoxycholate, 1% Triton X-100, supplemented with 1X protease inhibitor cocktail (Roche), and phosphatase inhibitors (10 mM NaF, 1 mM Na3VO4, and 20 mM β-glycerophosphate), unless otherwise noted. Lysates were spun at 14,000 × g for 10 min at 4 °C and supernatant was evaluated for protein content using a Pierce BCA Protein Assay (ThermoFisher Scientific). In all experiments, 25–50 μg of protein was loaded onto 10% SDS-PAGE gels or 4–20% Criterion TGX precast gradient gels (Bio-Rad), transferred to nitrocellulose membranes, and probed with the specified antibodies overnight at 4 °C in 1X TBS-Tween (Tris-buffered saline plus 0.02% Tween 20) containing 5% non-fat milk. Immunoblots were visualized using a Bio-Rad ChemiDoc imaging instrument and subsequently processed and quantified using the accompanying Bio-Rad ImageLab software. See Supplementary Figure 8 for uncropped scans of western blots shown in the main text figures.
(§3) Western blot data in Figs. 2, 6, and Supplementary Figures 2, 3 were quantified by using the band feature in Image Lab (Bio-Rad). The p38 values were normalized to the α-tubulin signal to account for differences in protein load, and PROTAC-treated normalized values were expressed as a % of the vehicle-treated (no PROTAC) value, which itself was defined as 100% p38 protein level. […] The sigmoidal fit established both the full extent of degradation, or Dmax at the bottom asymptote of the curve, as well as the DC50, which is the inflection point at which 50% of the total degradation observed was reached.

p38α = target: T2, p38α (Homo sapiens, UniProt Q16539); assay: PROTAC-induced p38α degradation, western blot in MDA-MB-231 cells; type: cell-based; conditions: 0.025-5.0 µM survey, ± one s.d., Supplementary Table 1; for DC50: biological duplicates
T2 construct: SJFα PROTAC (13-atom linker, amide attachment) selectively degrades p38α; endogenous in cells; host or cells: MDA-MB-231
T2 sequence (Q16539 whole entry): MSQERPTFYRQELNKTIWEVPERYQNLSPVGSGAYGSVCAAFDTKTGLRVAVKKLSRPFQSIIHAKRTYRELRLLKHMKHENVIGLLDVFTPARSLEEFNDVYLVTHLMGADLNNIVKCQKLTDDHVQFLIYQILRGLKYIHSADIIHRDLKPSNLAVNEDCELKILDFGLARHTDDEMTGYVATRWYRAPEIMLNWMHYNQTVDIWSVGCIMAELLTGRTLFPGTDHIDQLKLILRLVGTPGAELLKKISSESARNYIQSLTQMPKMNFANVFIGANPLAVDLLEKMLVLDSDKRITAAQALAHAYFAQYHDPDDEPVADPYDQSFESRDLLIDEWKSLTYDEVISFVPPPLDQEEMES
Procedure: as §1, §2, §3

COc1cc2c(Oc3ccc(NC(=O)C4(C(=O)Nc5ccc(F)cc5)CC4)cc3F)ccnc2cc1OCCCOCCCOCCC(=O)N[C@H](C(=O)N1C[C@H](O)C[C@H]1C(=O)NCc1ccc(-c2scnc2C)cc1)C(C)(C)C
DC50 (p38δ): 456 ± 362 nM
DC50 (p38α): 230 ± 47 nM
Dmax p38α (maximum percentage of degradation) (p38α): 90.1 ± 4.2%

COc1cc2c(Oc3ccc(NC(=O)C4(C(=O)Nc5ccc(F)cc5)CC4)cc3F)ccnc2cc1OCCCCOCCCCOc1cc(-c2scnc2C)ccc1CNC(=O)C1CC(O)CN1C(=O)C(C(C)C)N1Cc2ccccc2C1=O (centres unmarked) [SJF-6677]
DC50 (p38δ): 106 ± 81.5 nM
Dmax p38δ (maximum percentage of degradation) (p38δ): < 50% and 43.5 ± 7.2%
DC50 (p38α): 127 ± 163 nM
Dmax p38α (maximum percentage of degradation) (p38α): < 50% and 25.3 ± 6.6%

COc1cc2c(Oc3ccc(NC(=O)C4(C(=O)Nc5ccc(F)cc5)CC4)cc3F)ccnc2cc1OCCCOCCOCCCOc1cc(-c2scnc2C)ccc1CNC(=O)C1CC(O)CN1C(=O)C(C(C)C)N1Cc2ccccc2C1=O (centres unmarked) [BES-4612]
DC50 (p38δ): 1890 ± 2350 nM
Dmax p38δ (maximum percentage of degradation) (p38δ): 78.7 ± 40.8%
DC50 (p38α): 760 ± 1500 nM
Dmax p38α (maximum percentage of degradation) (p38α): 16.8 ± 13.4%

COc1cc2c(Oc3ccc(NC(=O)C4(C(=O)Nc5ccc(F)cc5)CC4)cc3F)ccnc2cc1OCCCOCCOCCC(=O)N[C@H](C(=O)N1C[C@H](O)C[C@H]1C(=O)NCc1ccc(-c2scnc2C)cc1)C(C)(C)C [SJF-6690]
DC50 (p38δ): < 100 nM and 91.7 nM
Dmax p38δ (maximum percentage of degradation) (p38δ): 96.7 ± 3.7%
Dmax p38α (maximum percentage of degradation) (p38α): 99.4 ± 2.0%

COc1cc2c(Oc3ccc(NC(=O)C4(C(=O)Nc5ccc(F)cc5)CC4)cc3F)ccnc2cc1OCCCOCCCOCCCOc1cc(-c2scnc2C)ccc1CNC(=O)C1CC(O)CN1C(=O)C(C(C)C)N1Cc2ccccc2C1=O (centres unmarked) [SJF-6685]
DC50 (p38δ): 1140 ± 1950 nM
Dmax p38δ (maximum percentage of degradation) (p38δ): 33.5 ± 27.2%
DC50 (p38α): 304 ± 691 nM

COc1cc2c(Oc3ccc(NC(=O)C4(C(=O)Nc5ccc(F)cc5)CC4)cc3F)ccnc2cc1OCCOCCOCCC(=O)N[C@H](C(=O)N1C[C@H](O)C[C@H]1C(=O)NCc1ccc(-c2scnc2C)cc1)C(C)(C)C [SJF-6693]
DC50 (p38δ): < 100 nM and 51.4 nM
Dmax p38δ (maximum percentage of degradation) (p38δ): 81.8 ± 1.9%
Dmax p38α (maximum percentage of degradation) (p38α): 92.6 ± 2.8%
